Laboratory results as given in patent US20080206287A1, “Use of cyclosporin A to sensitize resistant cancer cells to death receptor ligands” (priority 2006, published 2008).
“Also recorded” adds a separate entry of the source.

How the values were obtained:
PPC-1 cells = experiment: Apoptosis of PPC-1 cells transfected with CrmA or Bcl-XL; assay type: cell-based; settings: for protection by Bcl-XL against apoptosis induced by CH-11 plus compound: PPC-1 cells transfected with Bcl-XL; for protection by CrmA against apoptosis induced by CH-11 plus compound: PPC-1 cells transfected with CrmA
Protocol: Cell transfections. PPC-1 cells (2×10^5) were seeded in 35 mm diameter plates in RPMI with 10% FCS. The next day the cells were co-transfected using Lipofectamine Plus (Invitrogen, Carlsbad, Calif.) with 0.5 μg GFP-encoding plasmid pEGFP (Invitrogen) in combination with […] of plasmids encoding Bcl-XL, the viral caspase-8 inhibitor Crm A, or empty vector. At 2 days post-transfection, cells were incubated with various concentrations of CH-11 antibody and the test compounds for 24 hours, then the percentage apoptosis was scored by UV-microscopic analysis of the GFP-positive cells, counting a minimum of 200 cells. Cells that had rounded up and were floating in the medium were counted as non-viable, while cells that remained adherent to the plate with normal morphological features were counted as viable.
To further address the specificity of the compounds for the extrinsic pathway, the effects of selective apoptosis inhibitory genes were examined. For these experiments, PPC-1 cells were transfected with plasmids encoding CrmA, a viral protein that blocks the extrinsic pathway by inhibiting caspase-8 (Zhou et al., J. Biol. Chem. 272:7797-7800, 1997) or encoding Bcl-xL, a mitochondria-targeting protein that blocks the intrinsic pathway by inhibiting release of cytochrome c (Boise et al., Cell 74:597-608, 1993; Kharbanda et al., Proc. Natl. Acad. Sci. USA 94:6939-6942, 1997). After transfection, cells were treated with CH-11 antibody and compounds 6094911, 5809354, or […] scoring the percentage of apoptotic cells among the successfully transfected cells as determined by co-transfection of a GFP-marker plasmid.

FAS or TRAIL receptors = experiment: Surface expression of death receptors by flow cytometry; assay type: cell-based; settings: PPC-1 cells
Description: Furthermore, since these compounds sensitize to both FAS and TRAIL, they presumably act distal to death receptors.

FLIP mRNA = FLIP mRNA quantitative RT-PCR; assay type: cell-based; settings: responding and non-responding cell lines
Protocol: Quantitative RT-PCR. The cDNAs encoding the long isoform of FLIPL and GAPDH were amplified using the following primer pairs: 5′-[…]-3′ (forward primer for FLIP; SEQ ID NO:1), 5′-[…]-3′ (reverse primer for FLIP; SEQ ID NO:2), 5′-GAAGGTGAAGGTCGGAGTC-3′ (forward primer for GAPDH; SEQ ID NO:3), and 5′-[…]-3′ (reverse primer for GAPDH; SEQ ID NO:4). Equal amounts of cDNA for each sample were added to a prepared master mix (SYBR Green PCR Master mix, Applied Biosystems, Foster City, Calif.). Real-time quantitative PCR reactions were performed on an ABI Prism 7700 sequence detection system (Applied Biosystems, Foster City, Calif., USA). The relative abundance of a transcript was represented by the threshold cycle of amplification (CT), which is inversely correlated to the amount of target RNA/first strand cDNA being amplified. To normalize for equal amounts of the latter, the transcript levels of the putative housekeeping gene GAPDH were assayed. The comparative CT method was calculated as per manufacturer's instructions. To normalize the CT of FLIP for each sample, the following ratio was calculated: CT(FLIP)/CT(GAPDH). The expression level of FLIP relative to the baseline level was calculated as 2^−ΔΔCT(FLIP), where ΔCT is (average FLIP CT-average GAPDH CT) and ΔΔCT is (average ΔCT untreated sample−average ACT treated sample.
To determine whether the reductions in FLIP protein occurred at the level of mRNA or protein, FLIP mRNA expression was measured by Quantitative RT-PCR in cells treated with 5809354 or buffer control.

FLIP = FLIP protein immunoblot; assay type: cell-based, human; settings: for levels of FLIP protein (long isoform): PPC-1 cells, with or without CH-11, 24 hours, immunoblot
Protocol: Immunoblot analysis. Protein extracts were obtained by washing cells with phosphate-buffered saline (PBS) [pH 7.4] and suspending the cells in lysis buffer [10 mM Tris (pH 7.4), 150 mM NaCl, 0.1% Triton X-100, 0.5% sodium deoxycholate, and 5 mM EDTA] containing protease inhibitors (Complete tablets; Roche, Indianapolis, Ind.). Immunoblot assays were performed as described in Carter et al. (Blood 105:4043-4050, 2005). Briefly, equal amounts of protein as determined by a Bradford assay (Bradford, Anal. Biochem. 72:248-54, 1976) were subjected to SDS-PAGE (4-20% gradient gels from ISC BioExpress, Kaysville, Utah), followed by transfer to nitrocellulose membranes. Membranes were incubated with mouse monoclonal anti-human FLIP (NF6 clone) (1:500 v/v) (Alexis, San Diego, Calif.), 1:1,000 (v/v) anti-aspase-8 clone 5F7 (Upstate) and mouse monoclonal anti-tubulin (1:2000 v/v) (Sigma Inc). Secondary antibodies consisted of horseradish peroxidase-conjugated goat anti-rabbit IgG or goat anti-mouse IgG (Bio-Rad, Hercules, Calif.). Detection was performed by the enhanced chemiluminescence method (Pierce, Rockford, Ill.).
Effects of sensitizing compounds on FLIP protein. Since FAS-sensitizing compounds 6094911 and 5809354 modulate the extrinsic pathway downstream of TNF-family death receptors but upstream of effector caspases, the effects of those compounds on expression of FLIP, an intracellular antiapoptotic protein that binds caspases-8 and -10 and is capable of suppressing death receptor signaling at a proximal point within the extrinsic pathway, was examined. For these experiments, PPC-1 cells were treated with sensitizing compounds in the presence or absence of CH-11 antibody, then cell lysates were prepared 24 hours later, and analyzed by immunoblotting for FLIP.
The levels of the short isoform of FLIP were less than 5% of total FLIP protein as measured by immunoblotting and quantitative densitometry. Therefore, given the very low levels of the short isoform, the analysis was limited to the effects of the compounds on the long isoform of FLIP.

Row | Compound | protection by Bcl-XL against apoptosis induced by CH-11 plus compound (PPC-1 cells) | protection by CrmA against apoptosis induced by CH-11 plus compound (PPC-1 cells) | surface expression of FAS or TRAIL receptors (FAS or TRAIL receptors) | FLIP mRNA expression (FLIP mRNA) | levels of FLIP protein (long isoform) (FLIP) | levels of FLIP (FLIP; non-responding cell lines DU145 and MDA-MB-468)
1 | CCn1c(=N)n(CC(=O)c2cc(C(C)(C)C)c(O)c(C(C)(C)C)c2)c2ccccc21 [compound 5569100, 1-(3,5-Di-tert-butyl-4-hydroxy-phenyl)-2-(3-ethyl-2-imino-2,3-dihydro-benzoimidazol-1-yl)-ethanone] | no protective effect | almost completely protected | did not change | did not reduce FLIP mRNA | decreased levels of FLIP protein; also recorded: reduced FLIP expression | 
2 | O=C(CCCOc1ccc(Cl)cc1Cl)NO [compound 5809354, 4-(2,4-dichlorophenoxy)-N-hydroxybutanamide] | no protective effect | almost completely protected | did not change | reduced expression of FLIP mRNA; also recorded: decreased FLIP mRNA | decreased levels of FLIP protein | decreased
3 | CC(=O)CC(=O)Nc1ccc(Cl)c(C(F)(F)F)c1 [compound 6094911, N-[4-chloro-3-(trifluoromethyl)phenyl]-3-oxobutanamide] | no protective effect | almost completely protected | did not change | did not reduce FLIP mRNA | did not alter levels of FLIP protein | 
